Laboratory results published in US10179770B2, “Quinolines derivatives as novel anticancer agents” (GENOSCIENCE PHARMA, priority 2013, dated 2019).

Tests used:
A375 cell line = test: Combination of XIX-3 and Zelboraf, Bliss independence model; type: cell-based, human; details: XIX-3 associated with Zelboraf, 72 h
Experimental: The human melanoma cell lines A375 cultured in Dulbecco's modified Eagle's medium supplemented with 10% Fetal Bovine Serum and 1% Penicillin-Streptomycin and maintained at 37° C. with 5% CO2.
A375 cells were plated at 800 cells per well onto 96-well plates in 90 μL of media per well and were allowed to grow overnight before the assay. XIX-3 and Zelboraf, a compound used for treatment for BRAF V600E mutation-positive metastatic melanoma, were added at different concentrations (combinations of five concentrations of XIX-3 and six concentrations of Zelboraf) to each well, and cell cultures were incubated for 72 h. Vehicle (H2O) was used as a control, and all compounds were tested in a constant percentage of vehicle. Cell outgrowth was measured using a […] Aqueous One Solution Cell Proliferation Assay (Promega) and a TECAN Sunrise plate reader. […] The effects of drug-drug combinations are evaluated in the Bliss independence model (Prichard M. N. and Shipman C. Jr. Antivir. Res. 1990 (14) 181-205; Prichard, M. L. et al. Antimicrob Agents Chemother 1993 (37) 540-545). The theoretical additive effect is calculated from the dose-response curves of individual compounds by the equation: Z=X+Y(1−X) (7) Where: • Z represents the total inhibition produced by the combination of drugs X and Y. • X and Y represent the inhibition produced by drugs X and Y alone, respectively. […]

SkBr3 = test: CellTiter-Glo cell viability assay (example 57); type: cell-based; details: Homo sapiens, SK-BR-3; SkBr3 (Breast); Cell Titer-Glo; 72 h
Experimental: (§1) The human breast cancer cell line SkBr3 and the human metastatic prostate carcinoma cell line LnCAP were cultured in Dulbecco's modified Eagle's medium (DMEM) supplemented with 10% fetal bovine serum (FBS) and 0.1% sodium pyruvate. The human myelocytic cell line U937 and NB4 were maintained in RPMI medium 1640 1× (Gibco 21875-034) supplemented with 10 % Fetal Bovine Serum (FBS, Eurobio S39130-0808) Kasumi and SKM-1 were maintained in RPMI medium 1640 1× (Gibco 21875-034) supplemented with 20 % Fetal Bovine Serum (FBS, Eurobio S39130-0808), HL60 was maintained in Iscove's modified Dulbecco's medium 1× (IMDM, Gibco 21890) supplemented with 20% Fetal Bovine Serum (FBS, Eurobio S39130-0808), cell line was maintained in MEM alpha medium (Gibco 22561-021) supplemented with 10% FBS at 37° C. with 5% CO2. Cell outgrowth was measured using the CellTiter-Glo luminescent cell viability assay as described by the manufacturer (Promega, Ref G7571 Madison, Wis., USA) using a FLUOstar optima luminometer (BMG Labtech, Ortenberg, Germany).
(§2) Briefly, for adherent cells, 10^4 cells were plated onto 96-well plates (white with clear bottom (3610, Corning Costar) in 100 μL of media per well and were allowed to grow overnight before the assay. For cells growing in suspension, 10^4 cells were plated onto 96-well plates immediately before the assay. […] Vehicle (DMSO) was used as a control, and all compounds were tested in a constant percentage of DMSO (1%). After addition of 50 μL of CellTiter GLO, luminescence was measured using a Centro luminometer (Berthold). EC50 values were determined as the dose of compound required to reduce luminescent values to 50% of the signal obtained for untreated cell cultures. All experiments were done in duplicate and repeated two independent times.

Kasumi-1 = test: CellTiter-Glo cell viability assay (example 57); type: cell-based; details: Homo sapiens; Kasumi-1 (Leukemia); Cell Titer-Glo; 72 h
Experimental: as §1, §2

HL60 = test: CellTiter-Glo cell viability assay (example 57); type: cell-based; details: Homo sapiens, HL-60; HL60 (Leukemia); Cell Titer-Glo; 72 h
Experimental: as §1, §2

SKM-1 = test: CellTiter-Glo cell viability assay (example 57); type: cell-based; details: Homo sapiens; SKM-1 (Leukemia); Cell Titer-Glo; 72 h
Experimental: as §1, §2

NB4 = test: CellTiter-Glo cell viability assay (example 57); type: cell-based; details: Homo sapiens, NB-4; NB4 (Leukemia); Cell Titer-Glo; 72 h
Experimental: as §1, §2

LNCaP = test: CellTiter-Glo cell viability assay (example 57); type: cell-based; details: Homo sapiens; LNCaP (Prostate); Cell Titer-Glo; 72 h
Experimental: as §1, §2

U937 = test: CellTiter-Glo cell viability assay (example 57); type: cell-based; details: Homo sapiens, U-937; U937 (Leukemia); Cell Titer-Glo; 72 h
Experimental: as §1, §2

MOLM-14 cell line = test: Combination of XXIV-3 and Cytarabine, Bliss independence model; type: cell-based, human; details: XXIV-3 associated with Cytarabine, 72 h
Experimental: The human leukemia cell line MOLM-14 was cultured in Minimum Essential Medium Alpha Medium (MEM) supplemented with 10% Fetal Bovine Serum (FBS) and 1% Penicillin-Streptomycin and maintained at 37° C. with 5% CO2. 30,000 cells in 180 μL of MEM 5% FBS 1% P/S were plated onto 96-well plates immediately before the assay. Compounds were added at different concentrations (combinations of five concentrations of XXIV-3 and six concentrations of Cytarabine) to each well, and cell cultures were incubated for 72 h. Vehicle (H2O) was used as a control, and all compounds were tested in a constant percentage of vehicle. Cell outgrowth was measured using the CellTiter-Glo luminescent cell viability assay as described by the manufacturer (Promega, Ref G7571 Madison, Wis., USA) using an Infinite F200 Pro TECAN plate reader. […]
The effects of drug-drug combinations are evaluated in the Bliss independence model (Prichard M. N. and Shipman C. Jr. Antivir. Res. 1990 (14) 181-205; Prichard, M. L. et al. Antimicrob Agents Chemother 1993(37) 540-545). The theoretical additive effect is calculated from the dose-response curves of individual compounds by the equation: Z=X+Y(1−X) (7) Where: • Z represents the total inhibition produced by the combination of drugs X and Y. • X and Y represent the inhibition produced by drugs X and Y alone, respectively. […]

Row | Structure (SMILES) | Combination effect on cell viability (Bliss independence model) (A375 cell line) | EC50 (SkBr3) [µM] | EC50 (Kasumi-1) [µM] | EC50 (HL60) [µM] | EC50 (SKM-1) [µM] | EC50 (NB4) [µM] | EC50 (LNCaP) [µM] | EC50 (U937) [µM] | Combination effect on cell viability (Bliss independence model) (MOLM-14 cell line)
1 | CCN(CC)C1CCN(C(C)c2cc(-c3ccccc3)nc3ccccc23)CC1.Cl.Cl (stereo not drawn) [XIX-3, 2-phenyl-4-{1-[4-(N,N-diethylamino)piperidin-1-yl]-eth-1-yl}quinoline dihydrochloride] | additive effect (between −20% to +20% indicates additive effect) | 20 | 30 | 40 | 30 | 37 | 25 | 35 | 
2 | CCN(CC)C1CCN(C(C)c2cc(-c3ccc4ccccc4c3)nc3ccccc23)CC1.Cl.Cl (stereo not drawn) [XXIV-3, 2-(2-naphtyl)-4-{1-[4-(N,N-diethylamino)-piperidin-1-yl]-eth-1-yl}quinoline dihydrochloride] |  |  |  |  |  |  |  |  | additive effect (between −20% to +20% indicates additive effect)
